Like-named read-outs stand apart in the source and are kept apart here.
Test system: 48-hour salivary biofilm
Test: Biofilm disruption screening assay: 48-hour salivary biofilm on polystyrene peg plate, ATP bioluminescence of bacteria remaining
Type: cell-based
Settings: for log RLU compound: treated twenty minutes, N=8
Method: (§1) A 48-hour salivary biofilm was grown on a polystyrene peg plate substrate (96 pegs, N=8 per test group). The pegs were subsequently treated for twenty minutes with each of the long chain alcohols formulations described above, as well as the negative control. After treatment, viable bacteria remaining on the substrate were removed by sonication using a Ultrasonic processor XL by Misonix (Farmingdale, N.Y.), lysed with Celsis Luminex (Celsis Rapid Detection Rapiscreen (Celsis International PLC, Chicago)) and ATP from the bacteria were measured using a bioluminescence marker Celsis LuminATE (Celsis Rapid Detection Rapiscreen (Celsis International PLC, Chicago)). Data was reported in log RLU (relative light units), where decreasing log RLUs indicates fewer bacteria remaining on the substrate and in M-factor units where M-factor is the difference between the log RLU values of the compound tested and the negative control.
as §1, with “marker.” for “marker”
To determine the concentration dependence of biofilm disruptor activity, a series of formulations was prepared with cis-2-nonen-1-ol concentration ranging from 0.0005% to 0.1%. These formulations were tested against the negative control in the biofilm disruption screening assay described in Examples 1 and 2. Data was reported in log RLU (relative light units) where decreasing log RLUs indicates fewer bacteria remaining on the substrate and in M-factor units where M-factor is the difference between the log RLU values of the compound tested and the negative control. […]

[1] = 20 min, alcohol 0.05% (w/v), twenty minutes, difference between log RLU of compound and negative control, read-out: M-factor
[2] = unsaturated long chain alcohol 0.05% (w/v) in water/ethanol/Pluronic F-127, decreasing log RLU = fewer bacteria remaining
[3] = 20 min, aldehyde 0.05% (w/v), twenty minutes, difference between log RLU of compound and negative control, read-out: M-factor
[4] = unsaturated long chain aldehyde 0.05% (w/v) in water/ethanol/Pluronic F-127

Structure (SMILES)	log reduction at 0.05 % [1]	log RLU compound [2] [log RLU]	log reduction at 0.05 % [3]	log RLU compound [4] [log RLU]	other results
C=CC(O)CCCCCCC (stereo not drawn) [1-decen-3-ol]	0.86	4.46			
C=CC(O)CCCCC (stereo not drawn) [1-octen-3-ol]	0.33	4.99			
CC(C)=CCCC(C)C=O (stereo not drawn) [2,6-dimethyl-5-hepten-1-al]			0.21	5.07	
C=CCCCCCCCCO [9-decen-1-ol]	0.97	4.35			
CCC/C=C\CO [cis-2-hexen-1-ol]	0.11	5.21			
CCCCCC/C=C\CO [cis-2-nonen-1-ol]	0.76	4.57			log reduction at 0.1 % (20 min, formulation A, cis-2-nonen-1-ol 0.1% (w/v), vs negative control log RLU 5.63, read-out: M-factor): 0.82; log reduction at 0.05 % (20 min, formulation B, cis-2-nonen-1-ol 0.05% (w/v), vs negative control log RLU 5.63, read-out: M-factor): 0.82; log reduction at 0.025 % (20 min, formulation C, cis-2-nonen-1-ol 0.025% (w/v), vs negative control log RLU 5.63, read-out: M-factor): 0.35; log reduction at 0.01 % (20 min, formulation D, cis-2-nonen-1-ol 0.01% (w/v), vs negative control log RLU 5.63, read-out: M-factor): 0.04; log reduction at 0.005 % (20 min, formulation E, cis-2-nonen-1-ol 0.005% (w/v), vs negative control log RLU 5.63, read-out: M-factor): -0.06; log reduction at 0.001 % (20 min, formulation F, cis-2-nonen-1-ol 0.001% (w/v), vs negative control log RLU 5.63, read-out: M-factor): -0.07; log reduction at 0.0005 % (20 min, formulation G, cis-2-nonen-1-ol 0.0005% (w/v), vs negative control log RLU 5.63, read-out: M-factor): -0.09; log RLU (formulation A, cis-2-nonen-1-ol 0.1% (w/v)): 4.81 log RLU; log RLU (formulation B, cis-2-nonen-1-ol 0.05% (w/v)): 4.82 log RLU; log RLU (formulation C, cis-2-nonen-1-ol 0.025% (w/v)): 5.28 log RLU; log RLU (formulation D, cis-2-nonen-1-ol 0.01% (w/v)): 5.59 log RLU; log RLU (formulation E, cis-2-nonen-1-ol 0.005% (w/v)): 5.69 log RLU; log RLU (formulation F, cis-2-nonen-1-ol 0.001% (w/v)): 5.70 log RLU; log RLU (formulation G, cis-2-nonen-1-ol 0.0005% (w/v)): 5.72 log RLU
CCC/C=C\CCO [cis-3-hepten-1-ol]	0.25	5.07			
CC/C=C\CCO [cis-3-hexen-1-ol]	0.06	5.22			
CCCCC/C=C\CCO [cis-3-nonen-1-ol]	0.76	4.56			
CCCCC/C=C\CCCO [cis-4-decen-1-ol]	0.62	4.71			
CCCCC/C=C\CCC=O [cis-4-decenal]			0.99	4.59	
CC/C=C\CCC=O [cis-4-hepten-1-al]			-0.04	5.14	
CC/C=C\CCCCO [cis-5-octen-1-ol]	0.31	5.01			
CC/C=C\CCCCCO [cis-6-nonen-1-ol]	0.72	4.60			
CC/C=C\CCCCC=O [cis-6-nonenal]			0.44	4.84	
CC/C=C\CCCCCC=O [cis-7-decenal]			0.33	5.25	
CCCCCCC/C=C/CO [trans-2-decen-1-ol]	1.45	4.13			
CCCCCCC/C=C/C=O [trans-2-decenal]			0.95	4.63	
CCCCCCCCC/C=C/CO [trans-2-dodecen-1-ol]	0.88	4.44			
CCCCCCCCC/C=C/C=O [trans-2-dodecenal]			1	4.58	
CCCC/C=C/C=O [trans-2-heptenal]			0.06	5.52	
CCC/C=C/CO [trans-2-hexen-1-ol]	0.12	5.20			
CCC/C=C/C=O [trans-2-hexenal]			0.19	5.39	
CCCCCC/C=C/CO [trans-2-nonen-1-ol]	0.45	4.83			
CCCCCC/C=C/C=O [trans-2-nonenal]			0.92	4.66	
CCCCC/C=C/CO [trans-2-octen-1-ol]	0.69	4.89			
CCCCC/C=C/C=O [trans-2-octenal]			0.32	5.26	
CCCCCCCC/C=C/CO [trans-2-undecen-1-ol]	0.56	4.72			
CCCCCCCC/C=C/C=O [trans-2-undecenal]			0.83	4.49	

Source: patent US9591852B2, “Biofilm disruptive compositions” (McNeil-PPC, Inc., priority 2009, dated 2017)
